Assay results as given in PubChem BioAssay (NCI).
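Compound exposure: 48 hours, 5 concentrations, 96-well plates. Here, GI50 denotes the concentration required for 50% inhibition of growth. TGI denotes the concentration required for complete inhibition of growth.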

Assays:
Experiment in all cases: growth of human tumour cells (NCI), 48 h
ACHN renal = tested on: ACHN renal
HS 578T breast = tested on: HS 578T breast
SN12C renal = tested on: SN12C renal
SK-MEL-28 melanoma = tested on: SK-MEL-28 melanoma
NCI-H226 lung = tested on: NCI-H226 lung
NCI-H522 lung = tested on: NCI-H522 lung
HCT-116 colon = tested on: HCT-116 colon
MDA-MB-231 breast = tested on: MDA-MB-231 breast
MCF7 breast = tested on: MCF7 breast
U251 CNS = tested on: U251 CNS
SW-620 colon = tested on: SW-620 colon
NCI/ADR-RES ovarian = tested on: NCI/ADR-RES ovarian
RXF 393 renal = tested on: RXF 393 renal
CAKI-1 renal = tested on: CAKI-1 renal
HOP-92 NSCLC = tested on: HOP-92 NSCLC
SNB-75 CNS = tested on: SNB-75 CNS
UO-31 renal = tested on: UO-31 renal
A549 NSCLC = tested on: A549 NSCLC
OVCAR-4 ovarian = tested on: OVCAR-4 ovarian
MDA-MB-468 breast = tested on: MDA-MB-468 breast
EKVX NSCLC = tested on: EKVX NSCLC
NCI-H23 lung = tested on: NCI-H23 lung
RPMI-8226 leukemia = tested on: RPMI-8226 leukemia
COLO 205 colon = tested on: COLO 205 colon
MALME-3M melanoma = tested on: MALME-3M melanoma
IGROV1 ovarian = tested on: IGROV1 ovarian
A498 renal = tested on: A498 renal
UACC-62 melanoma = tested on: UACC-62 melanoma
SK-MEL-5 melanoma = tested on: SK-MEL-5 melanoma

SMILES: COC(=O)C[C@](O)(CCCC(C)(C)O)C(=O)O[C@H]1C(OC)=C[C@@]23CCCN2CCc2cc4c(cc2[C@@H]13)OCO4
- GI50 (ACHN renal): 1770 nM
- TGI (ACHN renal): 16200 nM
- TGI (HS 578T breast): 9750 nM
- GI50 (SN12C renal): 1610 nM
- TGI (SN12C renal): 19600 nM
- GI50 (SK-MEL-28 melanoma): 992 nM
- TGI (SK-MEL-28 melanoma): 4260 nM
- GI50 (NCI-H226 lung): 781 nM
- TGI (NCI-H226 lung): 3560 nM
- GI50 (NCI-H522 lung): 858 nM
- TGI (NCI-H522 lung): 2320 nM
- GI50 (HCT-116 colon): 717 nM
- TGI (HCT-116 colon): 3010 nM
- GI50 (MDA-MB-231 breast): 2240 nM
- TGI (MDA-MB-231 breast): 12800 nM
- GI50 (MCF7 breast): 524 nM
- TGI (MCF7 breast): 2110 nM
- GI50 (U251 CNS): 1000 nM
- TGI (U251 CNS): 4810 nM
- GI50 (SW-620 colon): 1150 nM
- TGI (SW-620 colon): > 38300 nM
- GI50 (NCI/ADR-RES ovarian): > 38300 nM
- TGI (NCI/ADR-RES ovarian): > 38300 nM
- GI50 (RXF 393 renal): 447 nM
- TGI (RXF 393 renal): 1470 nM
- GI50 (CAKI-1 renal): 3000 nM
- TGI (CAKI-1 renal): 29700 nM
- GI50 (HOP-92 NSCLC): 1150 nM
- TGI (HOP-92 NSCLC): 11700 nM
- GI50 (SNB-75 CNS): 982 nM
- TGI (SNB-75 CNS): 8370 nM
- GI50 (UO-31 renal): 4550 nM
- TGI (UO-31 renal): 29800 nM
- GI50 (A549 NSCLC): 999 nM
- TGI (A549 NSCLC): 8720 nM
- GI50 (OVCAR-4 ovarian): 1220 nM
- TGI (OVCAR-4 ovarian): 10300 nM
- GI50 (MDA-MB-468 breast): 613 nM
- TGI (MDA-MB-468 breast): 2080 nM
- GI50 (EKVX NSCLC): 1670 nM
- TGI (EKVX NSCLC): 16800 nM
- GI50 (NCI-H23 lung): 996 nM
- TGI (NCI-H23 lung): 3310 nM
- GI50 (RPMI-8226 leukemia): 930 nM
- TGI (RPMI-8226 leukemia): 2360 nM
- GI50 (COLO 205 colon): 1700 nM
- TGI (COLO 205 colon): 6870 nM
- GI50 (MALME-3M melanoma): 691 nM
- TGI (MALME-3M melanoma): 2110 nM
- GI50 (IGROV1 ovarian): 1320 nM
- TGI (IGROV1 ovarian): 11400 nM
- GI50 (A498 renal): 665 nM
- TGI (A498 renal): 3660 nM
- GI50 (UACC-62 melanoma): 1410 nM
- TGI (UACC-62 melanoma): 10600 nM
- GI50 (SK-MEL-5 melanoma): 614 nM
- TGI (SK-MEL-5 melanoma): 1470 nM
